ChEMBL document CHEMBL1201862, “PubChem BioAssay data set” (2004)
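Briefly, cells in 96-well plates were exposed to five compound concentrations for 48 h, and endpoints were estimated by linear interpolation. At the GI50, growth is halved.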 Activity calls are given as the source filed them. Rule as the data show it: active = GI50 up to about 1.1 µM and inactive = higher.

Columns and labels:
Experiment in all cases: NCI anticancer screen, dose series, 48 h
Malme-3M = system: Malme-3M
OVCAR-4 = system: OVCAR-4
NCI-H226 = system: NCI-H226
786-0 = system: 786-0
A498 = system: A498
UACC-62 = system: UACC-62
UACC-257 = system: UACC-257
CAKI-1 = system: CAKI-1
MOLT-4 = system: MOLT-4
LOX IMVI = system: LOX IMVI
M14 = system: M14
SK-MEL-5 = system: SK-MEL-5
SK-MEL-28 = system: SK-MEL-28
SF-295 = system: SF-295
SF-268 = system: SF-268
HCC 2998 = system: HCC 2998

Measured: GI50

O=C1c2ccccc2CC1C1(O)C(=O)Nc2ccccc21 (stereo unspecified)
inactive: Malme-3M > 100 µM | OVCAR-4 > 100 µM | NCI-H226 > 100 µM | 786-0 > 100 µM | A498 > 100 µM | UACC-62 > 100 µM | UACC-257 > 100 µM | CAKI-1 > 100 µM | MOLT-4 > 100 µM | LOX IMVI > 100 µM | M14 > 100 µM | SK-MEL-5 > 100 µM | SK-MEL-28 > 100 µM | SF-295 > 100 µM | SF-268 > 100 µM

C1=Cc2nc1c(-c1ccccc1)c1ccc([n-]1)c(-c1ccccc1)c1nc(c(-c3ccccc3)c3ccc([n-]3)c2-c2ccccc2)C=C1.[Zn+2]
inactive: Malme-3M > 100 µM | OVCAR-4 > 100 µM | NCI-H226 > 100 µM | 786-0 > 100 µM | UACC-62 > 100 µM | UACC-257 > 100 µM | CAKI-1 > 100 µM | MOLT-4 > 100 µM | LOX IMVI > 100 µM | M14 > 100 µM | SK-MEL-5 > 100 µM | SK-MEL-28 > 100 µM | SF-295 > 100 µM | SF-268 > 100 µM | HCC 2998 > 100 µM

C/C(=N\NS(=O)(=O)c1c(C)cc(C)cc1C)c1ccc[n+]([O-])n1
inactive: OVCAR-4 12.8 µM | 786-0 14.3 µM | A498 29.5 µM | UACC-62 16.4 µM | UACC-257 10.3 µM | CAKI-1 4.78 µM | MOLT-4 14.5 µM | M14 7.64 µM | SK-MEL-5 41.9 µM | SK-MEL-28 13.3 µM | SF-295 62.2 µM | SF-268 20.1 µM | HCC 2998 33 µM

O=c1[nH]c2cc([N+](=O)[O-])ccc2nc1/C(=N\NO)C(O)c1ccc([N+](=O)[O-])cc1 (stereo unspecified)
inactive: Malme-3M > 100 µM | OVCAR-4 > 100 µM | NCI-H226 > 100 µM | 786-0 > 100 µM | UACC-62 59.6 µM | UACC-257 > 100 µM | CAKI-1 50.2 µM | MOLT-4 > 100 µM | LOX IMVI 85.1 µM | M14 > 100 µM | SK-MEL-5 > 100 µM | SK-MEL-28 > 100 µM | SF-295 > 100 µM | SF-268 > 100 µM | HCC 2998 > 100 µM

COc1ccc2oc(C(=O)O)c3c2c1CCC3
inactive: OVCAR-4 > 100 µM | 786-0 > 100 µM | A498 > 100 µM | UACC-62 > 100 µM | UACC-257 > 100 µM | CAKI-1 > 100 µM | MOLT-4 > 100 µM | LOX IMVI > 100 µM | M14 > 100 µM | SK-MEL-5 > 100 µM | SK-MEL-28 > 100 µM | SF-295 > 100 µM | HCC 2998 > 100 µM

COc1cc(/C=C2\Cc3ccccc3C2=O)cc(OC)c1OC
inactive: Malme-3M > 100 µM | OVCAR-4 > 100 µM | NCI-H226 > 100 µM | 786-0 > 100 µM | UACC-62 > 100 µM | UACC-257 > 100 µM | CAKI-1 > 100 µM | MOLT-4 > 100 µM | LOX IMVI > 100 µM | M14 > 100 µM | SK-MEL-5 > 100 µM | SK-MEL-28 > 100 µM | SF-295 > 100 µM | SF-268 > 100 µM | HCC 2998 > 100 µM

O=C(O)CCSC(=O)Nc1ccccc1F
inactive: OVCAR-4 > 100 µM | NCI-H226 > 100 µM | 786-0 > 100 µM | A498 > 100 µM | CAKI-1 > 100 µM | MOLT-4 > 100 µM | LOX IMVI > 100 µM | M14 > 100 µM | SK-MEL-28 > 100 µM | SF-268 > 100 µM | HCC 2998 > 100 µM

CC(Nc1ccc(S(=O)(=O)NC(=N)N)cc1)c1c2ccccc2nc2ccccc12 (stereo unspecified)
inactive: Malme-3M 22.4 µM | OVCAR-4 10.1 µM | NCI-H226 19.6 µM | 786-0 36 µM | UACC-62 > 10 µM | UACC-257 35.3 µM | CAKI-1 19 µM | MOLT-4 14.6 µM | LOX IMVI 28 µM | M14 41 µM | SK-MEL-28 44.9 µM | SF-295 35.2 µM | SF-268 31 µM | HCC 2998 27.5 µM
